Data from the supplement of paper PMC9912026.

Tested on: A375_NRAS_Q61K_DOXind
Assay: pERK immunofluorescence relative to uninduced (no doxycycline), no-drug control; higher = more ERK phosphorylation (less pathway inhibition)
Details: drug treatment time 24 h, doxycycline pre-induction time 24 h, vemurafenib background 0 µM
Description: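 pERK was measured by immunofluorescence with FLAG-negative cells excluded. Averages of 2 technical replicates.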

CCCS(=O)(=O)Nc1ccc(F)c(C(=O)c2c[nH]c3ncc(-c4ccc(Cl)cc4)cc23)c1F [Vemurafenib] + O=C(c1ccc(F)c(F)c1Nc1ccc(I)cc1F)N1CC(O)([C@@H]2CCCCN2)C1 [Cobimetinib]
pERK immunofluorescence
Details	drug B concentration 0 µM	drug B concentration 0.0001 µM	drug B concentration 0.0003162 µM	drug B concentration 0.001 µM	drug B concentration 0.00316228 µM	drug B concentration 0.01 µM	drug B concentration 0.0316228 µM	drug B concentration 0.1 µM	drug B concentration 0.316228 µM	drug B concentration 1 µM
drug A concentration 0 µM, doxycycline 0 ng/mL	–	0.771	0.877	0.692	0.269	0.0826	0.0415	0.0295	0.0213	0.0214
drug A concentration 0 µM, doxycycline 1000 ng/mL	–	1.26	1.36	1.23	1.11	1.03	0.769	0.29	0.0675	0.0264
drug A concentration 0.000316 µM, doxycycline 0 ng/mL	0.894	0.847	0.89	0.663	0.253	0.078	0.0417	0.0283	0.023	0.0216
drug A concentration 0.000316 µM, doxycycline 1000 ng/mL	1.23	1.24	1.3	1.22	1.11	1.06	0.763	0.322	0.073	0.0271
drug A concentration 0.001 µM, doxycycline 0 ng/mL	0.854	0.807	0.827	0.652	0.277	0.0707	0.0373	0.0262	0.0201	0.0201
drug A concentration 0.001 µM, doxycycline 1000 ng/mL	1.15	1.21	1.26	1.29	1.15	1.08	0.761	0.326	0.0778	0.0269
drug A concentration 0.00316 µM, doxycycline 0 ng/mL	0.761	0.816	0.887	0.555	0.229	0.0664	0.0382	0.0255	0.0206	0.0196
drug A concentration 0.00316 µM, doxycycline 1000 ng/mL	1.12	1.17	1.31	1.25	1.13	1.01	0.763	0.311	0.0715	0.0264
drug A concentration 0.01 µM, doxycycline 0 ng/mL	0.697	0.719	0.752	0.525	0.207	0.0636	0.0366	0.0258	0.0201	0.0203
drug A concentration 0.01 µM, doxycycline 1000 ng/mL	1.16	1.21	1.28	1.31	1.21	1.02	0.741	0.32	0.0751	0.0284
drug A concentration 0.0316 µM, doxycycline 0 ng/mL	0.485	0.57	0.578	0.357	0.142	0.0532	–	–	–	–
drug A concentration 0.0316 µM, doxycycline 1000 ng/mL	1.08	1.11	1.22	1.27	1.05	–	–	–	–	–
